Experimental data from paper PMC3216401 (Antiviral research, 2011).
“And” between values parts separate entries of the source, which are not always exact repeats. Equal entries are not always repeated. Where two headings read alike, the source gives them in different places.

How the values were obtained:
[1] = test system: A/Thailand/2(Kan-1)/16/2004 (H5N1)
[2] = test system: A/Thailand/2(Kan-1)/16/2004 (H5N1); experiment: microbe, parasite or virus in culture; assay type: cell-based; conditions: Influenza A virus, H5N1, MDCK, read-out: IC90, VYR Assay
[3] = test system: A/Gull/PA/4175/83 (H5N1); experiment: microbe, parasite or virus in culture; conditions: Influenza A virus, H5N1, MDCK, read-out: IC50, Neutral Red Uptake Assay
[4] = test system: A/Thailand/2(Kan-1)/16/2004 (H5N1); experiment: microbe, parasite or virus in culture; conditions: Influenza A virus, H5N1, MDCK, read-out: IC50, Visual Assay
[5] = test system: A/Hong Kong/213/2003 (H5N1)
[6] = test system: A/Hong Kong/213/2003H (A/Hong Kong/213/2003 × Ann Arbor/6/60 hybrid)
[7] = test system: A/Gull/PA/4175/83 (H5N1)
[8] = test system: B/Malaysia/2506/2004; experiment: microbe, parasite or virus in culture; conditions: Influenza B virus, MDCK, read-out: IC50, Neutral Red Uptake Assay
[9] = test system: A/Hong Kong/213/2003 (H5N1); remark: listed apart in the source
[10] = test system: A/Thailand/2(Kan-1)/16/2004 (H5N1); remark: listed apart in the source
[11] = test system: B/Malaysia/2506/2004; experiment: microbe, parasite or virus in culture; assay type: cell-based; conditions: Influenza B virus, MDCK, read-out: IC90, VYR Assay
[12] = test system: A/Duck/MN/1525/81 (H5N1)
[13] = test system: influenza virus; conditions: in vivo; cited from earlier work
[14] = test system: influenza viruses; experiment: microbe, parasite or virus in culture; assay type: cell-based, influenza A and B viruses; conditions: Influenza A virus
[15] = test system: A/Hong Kong/213/2003 (H5N1); experiment: microbe, parasite or virus in culture; conditions: Influenza A virus, H5N1, MDCK, read-out: IC50, Visual Assay
[16] = test system: A/Hong Kong/213/2003 (H5N1); experiment: microbe, parasite or virus in culture; assay type: cell-based; conditions: Influenza A virus, H5N1, MDCK, read-out: IC90, VYR Assay
[17] = test system: A/Duck/MN/1525/81 (H5N1); experiment: microbe, parasite or virus in culture; conditions: Influenza A virus, H5N1, MDCK, read-out: IC50, Neutral Red Uptake Assay
[18] = test system: A/Thailand/2(Kan-1)/16/2004 (H5N1); experiment: microbe, parasite or virus in culture; conditions: Influenza A virus, H5N1, MDCK, read-out: IC50, Neutral Red Uptake Assay
[19] = test system: Influenza A/Sydney/05/97 (H3N2)
[20] = test system: influenza A/CA/07/2009 (H1N1); experiment: microbe, parasite or virus in culture; conditions: H1N1, MDCK, read-out: IC50, Neutral Red Uptake Assay
[21] = test system: influenza viruses; experiment: microbe, parasite or virus in culture; assay type: cell-based, influenza A and B viruses; conditions: Influenza A virus, MDCK, read-out: IC50, all viruses tested
[22] = test system: A/Brisbane/10/2007 (H3N2)
[23] = test system: B/Malaysia/2506/2004
[24] = test system: A/Hong Kong/213/2003 (H5N1); experiment: microbe, parasite or virus in culture; conditions: Influenza A virus, H5N1, MDCK, read-out: IC50, Neutral Red Uptake Assay
[25] = test system: influenza A/CA/04/09 pandemic H1N1 virus; set-up: species or system BALB/c mice; conditions: mouse, in vivo
[26] = test system: A/Vietnam/1203/04H (A/Vietnam/1203/04 × Ann Arbor/6/60 hybrid)
[27] = in vitro; conditions: dog, CC50 values, range, neutral red uptake assay
[28] = test system: A/Hong Kong/213/2003H (A/Hong Kong/213/2003 × Ann Arbor/6/60 hybrid); remark: listed apart in the source
[29] = test system: Influenza A/Vietnam/1203/2004 (H5N1); experiment: microbe, parasite or virus in culture; conditions: H5N1, MDCK, read-out: IC50, Visual Assay
[30] = test system: Influenza A/Vietnam/1203/2004 (H5N1)
[31] = test system: Influenza A/Vietnam/1203/2004 (H5N1); experiment: microbe, parasite or virus in culture; conditions: H5N1, MDCK, read-out: IC50, Neutral Red Uptake Assay
[32] = test system: Influenza A/Vietnam/1203/2004 (H5N1); remark: listed apart in the source
[33] = mouse, in vivo
[34] = test system: Influenza A/Vietnam/1203/2004 (H5N1); experiment: microbe, parasite or virus in culture; assay type: cell-based; conditions: H5N1, MDCK, read-out: IC90, VYR Assay
[35] = MDCK, read-out: IC90 values, range over viruses of Table 3

In the case of `Nc1ccn([C@@H]2O[C@H](CO)[C@@H](O)[C@H]2F)c(=O)n1` [2’-deoxy-2’-fluorocytidine, 2'-deoxy-2'-fluorocytidine], the “SI (CC50/IC50), Visual Assay” value [1] is reported as >676 ± 204, the IC90 [2] is reported as 690 nM and the IC50 [3] is reported as 1100 nM. The IC50 [4] was 160 ± 40 nM, the “SI (CC50/IC50), Neutral Red Uptake Assay” value [5] was >447 ± 216 and the “SI (CC50/IC50), Neutral Red Uptake Assay” value [6] was >14. The “SI (CC50/IC50), Neutral Red Uptake Assay” value [7] was >91, the IC50 [8] was 4100 nM and the “SI (CC50/IC50), Visual Assay” value [9] was >1954 ± 553. The “SI (CC50/IC50), Neutral Red Uptake Assay” value [10] was >251 ± 249, the IC90 [11] was 7.3 µM and the “SI (CC50/IC50), Visual Assay” value [12] was >400. The “Effect on virus lung titers in the mouse model” value [13] was “did not reduce virus lung titers”, the IC90 ([14]; H1N1|H3N2, MDCK, read-out: IC90 values, range for the H3N2 and H1N1 viruses tested) was 4.6 to 6.8 µM and the IC90 ([14]; H1N1|H5N1, MDCK, read-out: IC90 values, range for the hybrid H1N1 viruses expressing the H5N1 HA and NA proteins) was 2.9 to 5.1 µM. For the same molecule, the IC90 [14, 35] was 1.2 to 7.3 µM, the IC50 [15] was 50 ± 10 nM and the IC90 [16] was 1540 nM. For the same molecule, the IC50 [17] was 210 nM, the IC50 [18] was 720 ± 510 nM and the “SI (CC50/IC50), Visual Assay” value [19] was >170. The IC50 [20] was 4100 nM, the IC50 [21] was < 15 µM and the “SI (CC50/IC50), Visual Assay” value [22] was >100. For the same molecule, the “SI (CC50/IC50), Neutral Red Uptake Assay” value [23] was >24, the IC50 [24] was 270 ± 140 nM and the Live/Total [25] was 5/10 and 4/10 and 0/10. The “Mean Day of Death ± SD” value [25] was 7.8 ± 1.3 days and 8.9 ± 1.2 days and 9.3 ± 2.1 days and the “SI (CC50/IC50), Visual Assay” value [26] was >48.
With `Nc1ccn([C@@H]2O[C@H](CO)[C@@H](O)C2(F)F)c(=O)n1` [2’-deoxy-2’, 2’-difluorocytidine, reference compound] the CC50 [27] was 1.1 to 280 µM, the IC50 [3] was 270 nM and the “SI (CC50/IC50), Visual Assay” value [28] was >3100. The “SI (CC50/IC50), Neutral Red Uptake Assay” value [6] was >1538, the “SI (CC50/IC50), Neutral Red Uptake Assay” value [7] was 370 and the IC50 [8] was 68 nM. The IC50 [29] was < 32 nM, the IC90 [11] was 0.11 µM and the “SI (CC50/IC50), Visual Assay” value [12] was >1700. The “SI (CC50/IC50), Visual Assay” value [30] was >3100, the IC50 [31] was < 32 nM and the IC90 [14, 35] was 0.03 to 2.1 µM. The IC50 [17] was < 320 nM, the “SI (CC50/IC50), Visual Assay” value [19] was 67 and the “SI (CC50/IC50), Neutral Red Uptake Assay” value [32] was >3100. For the same molecule, the IC50 [20] was 160 nM, the “SI (CC50/IC50), Visual Assay” value [22] was 43 and the “Tolerability in uninfected mice” value [33] was “well tolerated”. The IC90 [34] was 30 nM, the “SI (CC50/IC50), Neutral Red Uptake Assay” value [23] was >1500 and the “SI (CC50/IC50), Visual Assay” value [26] was >1000.
